{"source": "patent EP3147364A1", "about": "“ANTIVIRAL AGENTS COMPRISING AN OLIGONUCLEOTIDE-LIPID CONJUGATE FORMING G-QUADRUPLEX” (priority 2015, dated 2017)", "key": {"[1]": {"system": "NL4.3-Ren", "assay": "Transfection experiment: pNL4.3-Ren viruses produced in 293T cells in presence of drug, quantified and tested for infectivity on SupT1 cells", "type": "cell-based, HIV-1", "conditions": "drug added to transfected 293T cells for 24h; supernatants on SupT1 cells (Fig. 7a)"}, "[2]": {"assay": "Cytotoxicity (viability) assay in Huh7/Scr cells (CytoTox-Glo)", "type": "cell-based", "conditions": "human"}, "[3]": {"system": "Luc-Jc1 virus", "assay": "HCVcc infection: Luc-Jc1 virus on Huh7/Scr cells, Firefly luciferase"}, "[4]": {"system": "NL4.3-Ren", "type": "cell-based, HIV-1", "conditions": "text does not say which of assays A and B (Figs. 4 and 5)"}}}
{"smiles": "CC(C)CN(C[C@@H](O)[C@H](Cc1ccccc1)NC(=O)O[C@H]1CCOC1)S(=O)(=O)c1ccc(N)cc1", "note": "[APV, Amprenavir]", "values": [{"measurement": "inhibition of infection by viruses produced in presence of drug", "setting": "[1]", "value": "inhibition of infection is detected"}]}
{"smiles": "Cc1nc(Nc2ncc(C(=O)Nc3c(C)cccc3Cl)s2)cc(N2CCN(CCO)CC2)n1", "note": "[Dasatinib]", "values": [{"measurement": "CC50 at 72 h", "setting": "[2]", "value": 20.3, "unit": "µM"}, {"measurement": "EC50", "setting": "[3]; Hepatitis C virus, Huh-7, 72 h", "value": 1.47, "unit": "µM"}, {"measurement": "SI", "setting": "[3]; Selectivity Index from EC50 and CC50", "value": 13.81}]}
{"smiles": "CCCC/C=C\\C/C=C\\CCCCCCCCCOCC(O)CO", "note": "(centres unmarked) [3-[(10Z,13Z)-octadeca-10,13-dien-1-yloxy]propane-1,2-diol]", "values": [{"measurement": "antiviral effect", "setting": "[4]", "value": "no effect"}]}
